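Five compound concentrations were applied to cells in 96-well plates for 48 hours; endpoints were derived by simple linear interpolation of the resulting dose-response curve. GI50 is the concentration that inhibits growth by half. TGI marks complete inhibition of growth.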
Experiments:
Assay in all cases: DTP human tumour cell line panel, 48 h
[1] = system: NCI-H522 lung
[2] = system: MDA-MB-231 breast
[3] = system: HS 578T breast
[4] = system: OVCAR-8 ovarian
[5] = system: EKVX NSCLC
[6] = system: HOP-62 NSCLC
[7] = system: HCC-2998 colon
[8] = system: SK-MEL-5 melanoma
[9] = system: HL-60(TB) leukemia
[10] = system: NCI-H23 lung
[11] = system: OVCAR-5 ovarian
[12] = system: SN12C renal
[13] = system: SK-OV-3 ovarian
[14] = system: SF-295 CNS
[15] = system: SW-620 colon
[16] = system: SNB-75 CNS
[17] = system: UACC-257 melanoma
[18] = system: TK-10 renal
[19] = system: SF-539 CNS
[20] = system: DU-145 prostate
[21] = system: SR leukemia
[22] = system: OVCAR-4 ovarian
[23] = system: SF-268 CNS
[24] = system: HOP-92 NSCLC
[25] = system: MDA-MB-435
[26] = system: 786-0 renal
[27] = system: IGROV1 ovarian
[28] = system: A498 renal
[29] = system: LOX IMVI melanoma
[30] = system: UACC-62 melanoma

COc1cc(-c2nc(Nc3nc4ccccc4[nH]3)nc(N)c2C#N)cc(OC)c1OC
TGI [1]: 3.61 µM | GI50 [2]: 13.1 µM | TGI [2]: 92.4 µM | GI50 [3]: 0.33 µM | TGI [3]: > 100 µM | GI50 [4]: 28.9 µM | TGI [4]: > 100 µM | GI50 [5]: 41.4 µM | TGI [5]: > 100 µM | GI50 [6]: 5.04 µM | TGI [6]: 53.2 µM | GI50 [7]: > 40.8 µM | TGI [7]: > 100 µM | GI50 [8]: 0.414 µM | TGI [8]: 16.2 µM | GI50 [9]: 0.991 µM | TGI [9]: > 100 µM | GI50 [10]: 12.2 µM | TGI [10]: 40.2 µM | GI50 [11]: 27.8 µM | TGI [11]: > 86.4 µM | GI50 [12]: 29.1 µM | TGI [12]: > 100 µM | GI50 [13]: 4.4 µM | TGI [13]: 56.8 µM | GI50 [14]: 0.191 µM | GI50 [15]: 1.85 µM | TGI [15]: 26.1 µM | GI50 [16]: 0.308 µM | TGI [16]: 49.9 µM | GI50 [17]: > 100 µM | TGI [17]: > 100 µM | GI50 [18]: 30.7 µM | TGI [18]: > 100 µM | GI50 [19]: 10.7 µM | TGI [19]: 36.2 µM | GI50 [20]: 10.9 µM | TGI [20]: 35.6 µM | GI50 [21]: 0.23 µM | TGI [21]: > 100 µM | GI50 [22]: 12.9 µM | TGI [22]: 34.7 µM | GI50 [23]: > 53.2 µM | TGI [23]: > 100 µM | GI50 [24]: 0.341 µM | TGI [24]: 31.8 µM | GI50 [25]: 0.0886 µM | TGI [25]: 16.7 µM | GI50 [26]: 20.2 µM | TGI [26]: > 100 µM | GI50 [27]: 6.2 µM | TGI [27]: > 54 µM | GI50 [28]: 0.424 µM | TGI [28]: 22 µM | GI50 [29]: 6.37 µM | TGI [29]: 41.4 µM | GI50 [30]: 4.65 µM | TGI [30]: > 59.7 µM
